Source: ChEMBL document CHEMBL5150006, “Inhibition of Histone Deacetylase 6 (HDAC6) as a therapeutic strategy for Alzheimer's disease: A review (2010-2020)” (Eur J Med Chem, 2021)
One block for each compound: values may come before it.

How the values were obtained:
[1] = Half life in mouse plasma measured for 5 to 60 mins by HPLC/MS/MS analysis; assay type: ADME, cell-free; conditions: time 5-60 min
in vivo = conditions: mouse, brain and plasma
[2] = target: Glutamate [NMDA] receptor; test: Binding affinity to NMDAR (unknown origin) assessed as inhibition constant by [3H]MK-801 binding assay; assay type: protein-complex assay, Homo sapiens
[3] = target: T1, Protein deacetylase HDAC6 (Homo sapiens, UniProt Q9UBN7); test: Inhibition of HDAC6 in human HeLa cells measured after 2 hrs by Western blot analysis; assay type: cell-based
T1 sequence (Q9UBN7 whole entry): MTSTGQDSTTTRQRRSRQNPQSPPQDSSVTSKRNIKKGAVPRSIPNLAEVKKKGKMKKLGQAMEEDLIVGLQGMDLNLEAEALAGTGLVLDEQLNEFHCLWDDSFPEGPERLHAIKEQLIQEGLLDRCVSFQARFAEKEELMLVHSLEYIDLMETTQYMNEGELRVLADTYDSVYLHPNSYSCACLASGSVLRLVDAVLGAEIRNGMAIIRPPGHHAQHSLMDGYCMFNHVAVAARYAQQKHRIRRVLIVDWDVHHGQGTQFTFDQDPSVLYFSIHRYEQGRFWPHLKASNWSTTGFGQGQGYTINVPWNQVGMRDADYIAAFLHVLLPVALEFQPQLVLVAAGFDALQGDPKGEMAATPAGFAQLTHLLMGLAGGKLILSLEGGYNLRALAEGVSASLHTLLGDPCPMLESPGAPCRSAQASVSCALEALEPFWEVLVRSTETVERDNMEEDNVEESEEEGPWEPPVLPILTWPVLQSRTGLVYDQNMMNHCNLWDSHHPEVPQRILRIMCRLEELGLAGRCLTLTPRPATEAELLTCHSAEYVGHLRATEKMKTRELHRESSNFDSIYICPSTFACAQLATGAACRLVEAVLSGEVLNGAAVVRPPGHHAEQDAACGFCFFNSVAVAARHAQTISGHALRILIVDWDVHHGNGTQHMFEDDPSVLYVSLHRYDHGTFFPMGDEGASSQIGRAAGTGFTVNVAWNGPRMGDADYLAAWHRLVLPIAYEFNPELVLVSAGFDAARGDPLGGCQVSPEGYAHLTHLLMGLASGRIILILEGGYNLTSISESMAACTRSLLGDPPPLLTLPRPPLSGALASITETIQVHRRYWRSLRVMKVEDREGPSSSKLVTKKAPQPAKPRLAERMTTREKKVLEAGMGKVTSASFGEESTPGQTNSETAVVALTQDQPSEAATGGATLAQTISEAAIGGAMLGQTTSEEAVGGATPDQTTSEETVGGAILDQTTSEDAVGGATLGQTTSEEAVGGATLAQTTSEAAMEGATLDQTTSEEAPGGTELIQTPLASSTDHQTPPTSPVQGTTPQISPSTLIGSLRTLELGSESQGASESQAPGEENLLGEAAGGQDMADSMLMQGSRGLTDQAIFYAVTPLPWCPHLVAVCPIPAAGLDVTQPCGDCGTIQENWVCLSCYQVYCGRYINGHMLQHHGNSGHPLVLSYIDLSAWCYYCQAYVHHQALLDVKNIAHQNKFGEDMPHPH

[4] = target: T1, Protein deacetylase HDAC6; test: Inhibition of HDAC6 (unknown origin) by microtiter plate reader analysis
[5] = target: T1, Protein deacetylase HDAC6; test: Inhibition of HDAC6 in human SH-SY5Y cells measured after 2 hrs by Western blot analysis; assay type: cell-based
[6] = target: High affinity cGMP-specific 3',5'-cyclic phosphodiesterase 9A (Homo sapiens, UniProt O76083); test: Inhibition of PDE9 in human SH-SY5Y cells measured after 2 hrs by Western blot analysis; assay type: cell-based
Sequence of High affinity cGMP-specific 3',5'-cyclic phosphodiesterase 9A (O76083 whole entry): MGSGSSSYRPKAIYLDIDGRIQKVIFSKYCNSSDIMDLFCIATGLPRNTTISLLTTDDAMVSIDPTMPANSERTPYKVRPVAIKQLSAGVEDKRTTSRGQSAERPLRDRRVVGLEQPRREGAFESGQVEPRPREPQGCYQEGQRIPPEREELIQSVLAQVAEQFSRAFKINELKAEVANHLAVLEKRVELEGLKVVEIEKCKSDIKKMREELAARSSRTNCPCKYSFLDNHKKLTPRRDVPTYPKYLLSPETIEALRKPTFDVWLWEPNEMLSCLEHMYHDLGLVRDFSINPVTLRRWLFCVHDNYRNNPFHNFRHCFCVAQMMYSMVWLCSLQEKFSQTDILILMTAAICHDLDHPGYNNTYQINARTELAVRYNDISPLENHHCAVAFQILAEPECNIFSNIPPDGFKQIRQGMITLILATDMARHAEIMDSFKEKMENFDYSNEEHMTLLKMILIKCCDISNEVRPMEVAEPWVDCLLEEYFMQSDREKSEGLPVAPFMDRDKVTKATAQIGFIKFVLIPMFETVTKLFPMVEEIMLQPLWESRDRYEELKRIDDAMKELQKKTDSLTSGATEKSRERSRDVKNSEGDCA

- half-life [1]: 12 min
SMILES: O=C(NO)c1cnc(NC2(c3ccccc3)CC2)nc1

- half-life [1]: 30 min
- Kp (in vivo): 1.26
SMILES: O=C(NO)c1cnc(NC2(c3cccc(F)c3)CCCCC2)nc1

- Ki [2]: 590 nM
- IC50 [3]: 180 nM
SMILES: CC12CC3CC(C)(C1)CC(NC(=O)/C=C/c1ccc(C(=O)NO)cc1)(C3)C2

- IC50 [4]: 0.0095 nM
SMILES: CCN(CC)c1ccc(C(=O)NCCCCCCC(=O)NO)cc1

- IC50 [5]: 107 nM
- IC50 [6]: 40 nM
SMILES: C[C@@H]1CN(Cc2ccc(C(=O)NO)cc2)C[C@H]1c1nc2c(cnn2C2CCCC2)c(=O)[nH]1

SMILES: CN1CCc2c(c3ccccc3n2Cc2ccc(C(=O)NO)cc2)C1 [TUBASTATIN A]
- Kp (in vivo): 1.22
